Measured values published in ChEMBL document CHEMBL1153189, “The comparative antimalarial properties of weak base and neutral synthetic ozonides” (Bioorg Med Chem Lett, 2010).
Converted amounts (≈) assume the structure as drawn.

How the values were obtained:
Plasmodium falciparum [1] = experiment: Antimalarial activity against chloroquine-resistant Plasmodium falciparum K1; type: functional, organism-based
Plasmodium falciparum [2] = experiment: Antimalarial activity against chloroquine-sensitive Plasmodium falciparum NF54; type: functional, organism-based
Plasmodium berghei [3] = experiment: Antimalarial activity against Plasmodium berghei infected in NMRI mice (Mus musculus) assessed as reduction in parasitaemia at 10 mg/kg, perorally administered 1 day post infection; type: functional; design: scale not given: the % may be the effect or the level left; conditions: route oral
Plasmodium berghei [4] = experiment: Antimalarial activity against Plasmodium berghei infected in NMRI mice (Mus musculus) assessed as reduction in parasitaemia at 3 mg/kg, perorally administered for 3 days post infection; type: functional; design: scale not given: the % may be the effect or the level left; conditions: route oral
Plasmodium berghei [5] = experiment: Antimalarial activity against Plasmodium berghei infected in NMRI mice (Mus musculus) assessed as survival time at 3 mg/kg, perorally administered for 3 days post infection; type: functional; conditions: route oral
Plasmodium berghei [6] = experiment: Antimalarial activity against Plasmodium berghei infected in NMRI mice (Mus musculus) assessed as cure rat at 3 mg/kg, perorally administered for 3 days post infection measured after 30 days; type: functional; conditions: route oral
[7] = Plasma concentration in rat at 100 mg/kg, po after 5 days; type: ADME, organism-based; design: dose 100 mg/kg, route oral
Cytochrome P450 3A4 = Cytochrome P450 3A4 (Homo sapiens, UniProt P08684); experiment: Inhibition of CYP3A4 up to 50 uM; type: ADME
Sequence of Cytochrome P450 3A4 (P08684 whole entry): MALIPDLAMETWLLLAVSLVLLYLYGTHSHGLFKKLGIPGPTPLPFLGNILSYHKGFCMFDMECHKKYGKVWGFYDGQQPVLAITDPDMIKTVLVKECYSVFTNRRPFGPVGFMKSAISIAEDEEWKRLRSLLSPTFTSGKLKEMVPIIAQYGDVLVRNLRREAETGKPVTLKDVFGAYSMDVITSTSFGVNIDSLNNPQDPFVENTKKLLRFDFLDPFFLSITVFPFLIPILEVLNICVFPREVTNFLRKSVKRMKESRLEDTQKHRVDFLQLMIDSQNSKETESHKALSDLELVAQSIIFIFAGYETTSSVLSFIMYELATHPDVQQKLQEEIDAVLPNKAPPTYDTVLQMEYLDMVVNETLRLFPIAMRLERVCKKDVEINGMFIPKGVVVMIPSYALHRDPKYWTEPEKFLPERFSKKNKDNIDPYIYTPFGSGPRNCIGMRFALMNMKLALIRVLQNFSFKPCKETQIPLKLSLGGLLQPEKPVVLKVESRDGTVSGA

Cytochrome P450 2C9 = Cytochrome P450 2C9 (Homo sapiens, UniProt P11712); experiment: Inhibition of CYP2C9 up to 50 uM; type: ADME
Sequence of Cytochrome P450 2C9 (P11712 whole entry): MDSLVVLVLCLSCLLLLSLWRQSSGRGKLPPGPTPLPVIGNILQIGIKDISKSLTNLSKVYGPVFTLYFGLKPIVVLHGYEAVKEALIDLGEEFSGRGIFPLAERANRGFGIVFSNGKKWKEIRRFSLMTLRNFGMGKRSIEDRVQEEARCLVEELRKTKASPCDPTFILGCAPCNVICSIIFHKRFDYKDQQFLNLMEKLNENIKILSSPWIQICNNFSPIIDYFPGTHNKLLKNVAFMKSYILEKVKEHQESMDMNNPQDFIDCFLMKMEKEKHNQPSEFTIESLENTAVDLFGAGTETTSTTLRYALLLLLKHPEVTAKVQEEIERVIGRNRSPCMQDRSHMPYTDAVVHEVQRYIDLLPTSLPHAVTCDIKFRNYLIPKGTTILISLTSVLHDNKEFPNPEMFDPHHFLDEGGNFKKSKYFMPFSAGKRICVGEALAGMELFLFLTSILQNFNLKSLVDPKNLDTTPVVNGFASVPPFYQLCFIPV

Cytochrome P450 2D6 = Cytochrome P450 2D6 (Homo sapiens, UniProt P10635); experiment: Inhibition of CYP2D6 up to 50 uM; type: ADME
Sequence of Cytochrome P450 2D6 (P10635 whole entry): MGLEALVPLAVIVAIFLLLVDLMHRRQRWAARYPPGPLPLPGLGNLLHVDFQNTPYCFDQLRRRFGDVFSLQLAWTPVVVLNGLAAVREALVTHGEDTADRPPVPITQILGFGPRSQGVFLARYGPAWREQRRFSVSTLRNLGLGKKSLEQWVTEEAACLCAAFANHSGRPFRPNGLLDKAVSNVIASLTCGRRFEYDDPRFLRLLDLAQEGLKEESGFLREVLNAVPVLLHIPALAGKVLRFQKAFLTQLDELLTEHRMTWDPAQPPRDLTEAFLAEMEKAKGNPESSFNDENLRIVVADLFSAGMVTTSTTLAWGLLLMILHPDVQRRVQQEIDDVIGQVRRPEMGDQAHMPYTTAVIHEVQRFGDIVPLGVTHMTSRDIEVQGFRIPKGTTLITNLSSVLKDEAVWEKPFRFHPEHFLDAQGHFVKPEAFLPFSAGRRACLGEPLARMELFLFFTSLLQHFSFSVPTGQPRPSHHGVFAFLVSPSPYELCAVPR

Rattus norvegicus = experiment: Plasma concentration in rat at 300 mg/kg, po after 5 days; type: ADME, organism-based; design: dose 300 mg/kg, route oral; conditions: in vivo, 120 h
[8] = Lipophilicity, log D at pH 7.4; type: physicochemical; conditions: buffer
[9] = Half life in Sprague-Dawley rat at 10 mg/kg, iv; type: ADME, organism-based; design: dose 10 mg/kg, route intravenous; conditions: Sprague-Dawley, in vivo
[10] = Volume of distribution in Sprague-Dawley rat at 10 mg/kg, iv; type: ADME, organism-based; design: dose 10 mg/kg, route intravenous; conditions: Sprague-Dawley, in vivo
[11] = Blood clearance in Sprague-Dawley rat at 10 mg/kg, iv; type: ADME, organism-based; design: dose 10 mg/kg, route intravenous; conditions: whole blood

| Compound | IC50 (Plasmodium falciparum [1]) | IC50 (Plasmodium falciparum [2]) | Activity (Plasmodium berghei [3]) | Activity (Plasmodium berghei [6]) | further results |
| --- | --- | --- | --- | --- | --- |
| NC(=O)C(=O)NC[C@H]1CC[C@]2(CC1)OO[C@]1(O2)C2CC3CC(C2)CC1C3 | 0.44 ng/mL (≈ 1.21 nM) | 0.71 ng/mL (≈ 1.95 nM) | 99.5% |  |  |
| CC(C)(N)CNC(=O)C(=O)NC[C@H]1CC[C@]2(CC1)OO[C@]1(O2)C2CC3CC(C2)CC1C3.CS(=O)(=O)O | 0.4 ng/mL | 0.54 ng/mL | 99.9% | 0% | Activity (Plasmodium berghei [4]): >99.9%; Survival (Plasmodium berghei [5]): 22.8 days |
| Cc1ccc(S(=O)(=O)O)cc1.N[C@H]1CC[C@H](NC(=O)C(=O)NC[C@H]2CC[C@]3(CC2)OO[C@]2(O3)C3CC4CC(C3)CC2C4)CC1 | 0.7 ng/mL | 1.3 ng/mL | 99.9% | 40% | Activity (Plasmodium berghei [4]): >99.9%; Survival (Plasmodium berghei [5]): 25.2 days; concentration at 120 h [7]: 3700 ng/mL; Activity (Cytochrome P450 3A4): Not Active; Activity (Cytochrome P450 2C9): Not Active; Activity (Cytochrome P450 2D6): Not Active; Cp (Rattus norvegicus): 100 mg/kg |
| O=C(NC[C@H]1CC[C@]2(CC1)OO[C@]1(O2)C2CC3CC(C2)CC1C3)c1ccccn1 |  |  | 98% |  |  |
| CC(=O)NC[C@H]1CC[C@]2(CC1)OO[C@]1(O2)C2CC3CC(C2)CC1C3 | 0.63 ng/mL (≈ 1.88 nM) | 0.84 ng/mL (≈ 2.5 nM) | 98% |  |  |
| Cc1ccc(S(=O)(=O)O)cc1.O=C(CN1CCS(=O)(=O)CC1)NC[C@H]1CC[C@]2(CC1)OO[C@]1(O2)C2CC3CC(C2)CC1C3 | 4.6 ng/mL | 5.5 ng/mL | 86% |  | logD [8]: 4.5 |
| O=C(O)C(=O)NC[C@H]1CC[C@]2(CC1)OO[C@]1(O2)C2CC3CC(C2)CC1C3 | 58 ng/mL (≈ 159 nM) | 59 ng/mL (≈ 161 nM) | <40% |  |  |
| CS(=O)(=O)CC(=O)NCC1CC[C@]2(CC1)OO[C@]1(O2)C2CC3CC(C2)CC1C3 (some centres undefined) |  |  | 99.2% |  |  |
| CS(=O)(=O)O.O=C(NC[C@H]1CC[C@]2(CC1)OO[C@]1(O2)C2CC3CC(C2)CC1C3)C(=O)NC1CCNCC1 | 0.56 ng/mL | 0.79 ng/mL | >99.9% | 20% | Activity (Plasmodium berghei [4]): >99.9%; Survival (Plasmodium berghei [5]): 22.4 days |
| CN1CCN(C(=O)NC[C@H]2CC[C@]3(CC2)OO[C@]2(O3)C3CC4CC(C3)CC2C4)CC1 | 0.2 ng/mL (≈ 0.477 nM) | 0.34 ng/mL (≈ 0.81 nM) | 99.9% |  |  |
| CC(C)(N)C(=O)NC[C@H]1CC[C@]2(CC1)OO[C@]1(O2)C2CC3CC(C2)CC1C3 | 0.5 ng/mL (≈ 1.32 nM) | 0.36 ng/mL (≈ 0.951 nM) | 99.9% | 0% | Activity (Plasmodium berghei [4]): >99.9% |
| CN(C)C(=O)NC[C@H]1CC[C@]2(CC1)OO[C@]1(O2)C2CC3CC(C2)CC1C3 | 1.1 ng/mL (≈ 3.02 nM) | 1.5 ng/mL (≈ 4.12 nM) | 99.4% |  |  |
| Nc1n[nH]c(C(=O)NC[C@H]2CC[C@]3(CC2)OO[C@]2(O3)C3CC4CC(C3)CC2C4)n1 |  |  | 99.8% |  |  |
| Cc1ccc(S(=O)(=O)O)cc1.O=C(CNCC1CC1)NC[C@H]1CC[C@]2(CC1)OO[C@]1(O2)C2CC3CC(C2)CC1C3 | 0.36 ng/mL | 1.2 ng/mL |  |  |  |
| O=C(NC[C@H]1CC[C@]2(CC1)OO[C@]1(O2)C2CC3CC(C2)CC1C3)c1cccnc1 | 0.97 ng/mL (≈ 2.43 nM) |  | 99.6% |  |  |
| C[C@H]1[C@@H](O)O[C@@H]2O[C@@]3(C)CC[C@H]4[C@H](C)CC[C@@H]1[C@@]24OO3 [ARTENIMOL] |  |  |  |  | half-life [9]: 26 min; Vd [10]: 3 L/kg; clearance [11]: 72 mL/min/kg |
| C[C@H]1[C@H](OC(=O)CCC(=O)O)O[C@@H]2O[C@@]3(C)CC[C@H]4[C@H](C)CC[C@@H]1[C@@]24OO3 [ARTESUNATE] |  |  | 67% | 0% | Activity (Plasmodium berghei [4]): 70%; logD [8]: 3.5 |
| CCN(CC)CCCC(C)Nc1ccnc2cc(Cl)ccc12 (centres undefined) [CHLOROQUINE] |  |  |  | 0% | Survival (Plasmodium berghei [5]): 9.4 days |
| OC(c1cc(C(F)(F)F)nc2c(C(F)(F)F)cccc12)C1CCCCN1 (centres undefined) [MEFLOQUINE] |  |  |  | 0% |  |
